One may read the EC50 as the concentration at which the effect is half-maximal.

Our source for the EC50 values is patent US20220195066A1, “ANTI-CEA IMMUNOCONJUGATES, AND USES THEREOF” (BOLT BIOTHERAPEUTICS, INC., priority 2020, published 2022).

The structures appear in SMILES notation.

For assay [1], the target named is T1, human TLR7 (Homo sapiens, UniProt Q9NYK1).
T1 construct: host or cells: HEK293 NF-kB reporter cells
T1 sequence (Q9NYK1 27-1049): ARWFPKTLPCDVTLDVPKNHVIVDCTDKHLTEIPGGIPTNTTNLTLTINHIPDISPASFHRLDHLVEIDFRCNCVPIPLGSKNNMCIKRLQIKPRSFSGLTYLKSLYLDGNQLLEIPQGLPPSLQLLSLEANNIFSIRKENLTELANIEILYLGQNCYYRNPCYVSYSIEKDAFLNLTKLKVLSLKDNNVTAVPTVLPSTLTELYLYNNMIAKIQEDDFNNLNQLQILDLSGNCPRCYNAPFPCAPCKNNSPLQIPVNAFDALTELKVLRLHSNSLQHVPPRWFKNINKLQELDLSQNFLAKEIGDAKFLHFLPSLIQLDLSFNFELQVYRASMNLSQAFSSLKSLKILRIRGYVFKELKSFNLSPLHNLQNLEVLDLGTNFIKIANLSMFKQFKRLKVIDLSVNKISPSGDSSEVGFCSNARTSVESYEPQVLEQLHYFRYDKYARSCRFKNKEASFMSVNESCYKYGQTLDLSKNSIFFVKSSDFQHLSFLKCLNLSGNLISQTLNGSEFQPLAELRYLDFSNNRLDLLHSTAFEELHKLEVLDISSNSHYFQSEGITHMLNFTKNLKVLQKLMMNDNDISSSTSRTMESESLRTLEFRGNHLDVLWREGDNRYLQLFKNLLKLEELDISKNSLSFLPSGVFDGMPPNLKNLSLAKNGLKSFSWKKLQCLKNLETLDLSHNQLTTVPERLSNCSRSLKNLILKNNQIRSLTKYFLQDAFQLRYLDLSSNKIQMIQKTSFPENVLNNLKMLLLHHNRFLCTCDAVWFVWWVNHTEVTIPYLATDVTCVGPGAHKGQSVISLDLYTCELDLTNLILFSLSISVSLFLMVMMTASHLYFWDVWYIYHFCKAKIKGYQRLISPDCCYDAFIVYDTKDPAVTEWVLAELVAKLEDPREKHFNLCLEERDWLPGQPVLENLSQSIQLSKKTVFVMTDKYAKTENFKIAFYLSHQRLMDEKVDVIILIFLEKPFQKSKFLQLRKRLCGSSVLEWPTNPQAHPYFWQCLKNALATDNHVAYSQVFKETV
As to the kind of experiment: HEK Reporter Assay, HEK293 NFKB reporter cells expressing human TLR7. It counts as cell-based. The note with it: read-out: HEK293 hTLR7 EC50. On the procedure:
(§1) Each compound was synthesized, purified, and characterized by mass spectrometry and shown to have the mass indicated. Additional experimental procedures are found in the Examples. Activity against Human Embryonic Kidney (HEK) 293 NFKB reporter cells expressing human TLR7 or human TLR8 was measured according to Example 202.
(§2) Human Embryonic Kidney (HEK293) reporter cells expressing human TLR7 or human TLR8 (InvivoGen, San Diego Calif.), were used with vendor protocols for cellular propagation and experimentation. Briefly, cells were grown to 80-85% confluence at 5% CO2 in DMEM supplemented with 10% FBS, ZEOCIN™, and Blasticidin. Cells were then seeded in 96-well flat plates at 4×10^4 cells/well with substrate containing HEK detection medium and immunostimulatory molecules.
For orientation: In a reporter assay the amount or activity of a reporter protein is the signal.

In assay [2] the target is T2, human TLR8 (Homo sapiens, UniProt Q9NR97).
T2 construct: host or cells: HEK293 NF-kB reporter cells
T2 sequence (Q9NR97 27-1041): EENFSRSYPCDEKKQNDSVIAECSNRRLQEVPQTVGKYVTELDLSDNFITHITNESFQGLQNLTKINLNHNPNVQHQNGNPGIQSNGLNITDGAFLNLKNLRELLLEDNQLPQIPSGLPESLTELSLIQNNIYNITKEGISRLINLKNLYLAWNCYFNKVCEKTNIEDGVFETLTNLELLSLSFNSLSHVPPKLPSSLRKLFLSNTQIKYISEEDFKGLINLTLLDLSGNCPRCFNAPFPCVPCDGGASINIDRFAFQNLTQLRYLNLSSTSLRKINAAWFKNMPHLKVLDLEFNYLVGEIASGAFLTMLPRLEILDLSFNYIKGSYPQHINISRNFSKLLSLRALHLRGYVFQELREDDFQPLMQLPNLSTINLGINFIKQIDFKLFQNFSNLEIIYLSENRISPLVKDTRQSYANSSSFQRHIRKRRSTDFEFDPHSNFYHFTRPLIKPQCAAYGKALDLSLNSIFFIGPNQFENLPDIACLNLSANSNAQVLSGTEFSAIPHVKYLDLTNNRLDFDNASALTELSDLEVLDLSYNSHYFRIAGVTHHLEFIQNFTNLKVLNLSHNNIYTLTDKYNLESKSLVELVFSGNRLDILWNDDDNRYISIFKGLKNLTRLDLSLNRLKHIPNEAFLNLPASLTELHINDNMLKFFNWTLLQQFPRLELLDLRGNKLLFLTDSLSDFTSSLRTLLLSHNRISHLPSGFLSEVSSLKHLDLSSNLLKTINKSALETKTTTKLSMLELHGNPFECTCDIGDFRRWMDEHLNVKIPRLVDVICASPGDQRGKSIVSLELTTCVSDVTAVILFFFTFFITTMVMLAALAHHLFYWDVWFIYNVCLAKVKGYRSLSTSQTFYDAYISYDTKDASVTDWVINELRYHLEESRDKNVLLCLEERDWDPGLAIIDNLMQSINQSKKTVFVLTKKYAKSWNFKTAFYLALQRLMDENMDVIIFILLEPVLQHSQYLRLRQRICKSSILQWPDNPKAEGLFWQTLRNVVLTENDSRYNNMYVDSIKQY
Description: HEK Reporter Assay, HEK293 NFKB reporter cells expressing human TLR8. It counts as cell-based. The note with it: read-out: HEK293 hTLR8 EC50. On the procedure:
as §1, §2

`CCCN(OCC)C(=O)C1=Cc2ccc(-c3cnc(C#N)nc3)cc2N=C(N)C1` [HxBz-1]: the EC50 turned out to be 2540 nM in assay [1] and 163 nM in assay [2].
Taken in the same sequence, the figures for `CCCN(OCC)C(=O)C1=Cc2ccc(-c3cccnn3)cc2N=C(N)C1` [HxBz-2] were 2240 nM and 276 nM.
For the molecule `CCCN(OCC)C(=O)C1=Cc2ccc(-c3cnc(N4CCNCC4)nc3)cc2N=C(N)C1` [HxBz-3, 2-amino-N-ethoxy-8-(2-piperazin-1-ylpyrimidin-5-yl)-N-propyl-3H-1-benzazepine-4-carboxamide], the half-maximal effective concentration (EC50) in assay [1] was 562 nM; in assay [2], 43 nM.
For `CCCN(OCC)C(=O)C1=Cc2ccc(-c3cnc(N4CCN(C(=O)OC(C)(C)C)CC4)nc3)cc2N=C(N)C1` [HxBz-4, tert-butyl 4-[5-[2-amino-4-[ethoxy (propyl)carbamoyl]-3H-1-benzazepin-8-yl]pyrimidin-2-yl]piperazine-1-carboxylate], the results for the EC50 in assay [1] and in assay [2] were 3260 nM and 350 nM, respectively.
For `CCCN(OCC)C(=O)C1=Cc2ccc(-c3cnc(CN)nc3)cc2N=C(N)C1` [HxBz-5, 2-amino-8-[2-(aminomethyl)pyrimidin-5-yl]-N-ethoxy-N-propyl-3H-1-benzazepine-4-carboxamide] the same measures were 525 nM and 17 nM.
As to `CCCN(OCC)C(=O)C1=Cc2ccc(-c3ccc(C(=O)OC)nn3)cc2N=C(N)C1` [HxBz-6], the figures for the EC50 in assay [1] and in assay [2] were 2660 nM and 339 nM, respectively.
Turning to `CCCN(OCC)C(=O)C1=Cc2ccc(-c3cncc(S(=O)(=O)N4CC(CN)C4)c3)cc2N=C(N)C1` [HxBz-7, 2-amino-8-[5-[3-(aminomethyl)azetidin-1-yl]sulfonyl-3-pyridyl]-N-ethoxy-N-propyl-3H-1-benzazepine-4-carboxamide], the EC50 worked out at 3630 nM in assay [1] and 335 nM in assay [2].
In the case of `CCCN(OCC)C(=O)C1=Cc2ccc(-c3cnn(S(=O)(=O)N4CC(CN)C4)c3)cc2N=C(N)C1` [HxBz-9], the results for the 50% effective concentration (EC50) in assay [1] and in assay [2] were 8630 nM and 397 nM, respectively.
Take `CCCN(OCC)C(=O)C1=Cc2ccc(-c3ncc(CN)cn3)cc2N=C(N)C1` [HxBz-10]: the EC50 in assay [2] amounted to 814 nM.
Consider `CCCN(OCC)C(=O)C1=Cc2ccc(-c3cnc(C(=O)OC)nc3)cc2N=C(N)C1` [HxBz-11, methyl 5-(2-amino-4-(ethoxy(propyl)carbamoyl)-3H-benzo[b]azepin-8-yl)pyrimidine-2-carboxylate], for which the EC50 in assay [1] worked out at 4070 nM; in assay [2] it was 161 nM.
`CCCN(OCC)C(=O)C1=Cc2ccc(-c3cnc(C(=O)N4CCC[C@H]4C(=O)OC)nc3)cc2N=C(N)C1` [HxBz-12]: the EC50 amounted to 159 nM in assay [1] and 6 nM in assay [2].
Taken in the same sequence, the figures for `CCCN(CCCNC(=O)OC1CCC1)C(=O)C1=Cc2ccc(-c3cnc(CN)nc3)cc2N=C(N)C1` [HxBz-13, cyclobutyl N-[3-[[2-amino-8-[2-(aminomethyl)pyrimidin-5-yl]-3H-1-benzazepine-4-carbonyl]-propyl-amino]propyl]carbamate] were 242 nM and 274 nM.
Turning to `CCCN(OCCNC(=O)OC1CCC1)C(=O)C1=Cc2ccc(-c3cnc(CN)nc3)cc2N=C(N)C1` [HxBz-15, cyclobutyl N-[2-[[2-amino-8-[2-(aminomethyl)pyrimidin-5-yl]-3H-1-benzazepine-4-carbonyl]-propyl-amino]oxyethyl]carbamate], the values for the concentration for a half-maximal effect (EC50) in assay [1] and in assay [2] were 35 nM and 10 nM, respectively.
Regarding `CCCN(CC1CNC(=O)O1)C(=O)C1=Cc2ccc(-c3cnc(CN)nc3)cc2N=C(N)C1` (stereo not drawn) [HxBz-25], the concentration for a half-maximal effect (EC50) in assay [2] was found to be 3160 nM.
Turning to `CCCN(OCCO)C(=O)C1=Cc2ccc(-c3cncc(S(=O)(=O)N4CC(CN)C4)c3)cc2N=C(N)C1` [HxBz-43], in assay [2], the EC50 amounted to 6160 nM.
Consider `CCCN(C(=O)C1=Cc2ccc(-c3cnc(CN)nc3)cc2N=C(N)C1)[C@H]1C[C@H](NC(=O)OC2CCC2)C1` [HxBz-44], for which the EC50 in assay [2] came to 6350 nM.
The same measure, in the same setting: the same measure for `CCCN(OCC1COC(=O)N1)C(=O)C1=Cc2ccc(-c3cnc(CN)nc3)cc2N=C(N)C1` (stereo not drawn) [HxBz-46]: 3580 nM.
On to `CCCN(OCC)C(=O)C1=Cc2ccc(-c3cnnc(CN)c3)cc2N=C(N)C1` [HxBz-48], for which, in assay [2], the EC50 was 2160 nM.
